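Interpolation was linear, between the two tested concentrations surrounding the appropriate level; five concentrations were tested over 48 hours in 96-well plates. Here, GI50 denotes the concentration required for 50% inhibition of growth. TGI denotes the concentration required for complete inhibition of growth.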
Tests used:
Test in all cases: NCI anticancer screen, dose series, 48 h
[1] = tested on: K-562 leukemia
[2] = tested on: LOX IMVI melanoma
[3] = tested on: NCI-H23 lung
[4] = tested on: SF-268 CNS
[5] = tested on: SK-MEL-2 melanoma
[6] = tested on: SNB-75 CNS
[7] = tested on: TK-10 renal
[8] = tested on: HL-60(TB) leukemia
[9] = tested on: RPMI-8226 leukemia
[10] = tested on: MCF7 breast

Row | Structure (SMILES) | TGI [1] | TGI [2] | TGI [3] | TGI [4] | TGI [5] | TGI [6] | TGI [7] | TGI [8] | TGI [9] | GI50 [8] | GI50 [1] | GI50 [2] | GI50 [9] | GI50 [5] | GI50 [6] | GI50 [7] | GI50 [10] | TGI [10] | GI50 [3] | GI50 [4]
1 | COc1cc2c(cc1OC(=O)CC(C)O)C1C(OC2=O)C(OC(C)=O)C=C2CCN(C)[C@H]21 (some centres not stated) | > 100 µM | > 100 µM | > 100 µM | > 100 µM | 41.5 µM | 38.4 µM | 65.1 µM |  |  |  |  |  |  |  |  |  |  |  |  | 
2 | CS(=O)(=O)Oc1cccc(/C=N/N=C(\N)NO)c1 | > 100 µM |  | > 100 µM | > 100 µM | > 100 µM | > 100 µM | 27.9 µM | 52.4 µM |  |  |  |  |  |  |  |  |  |  |  | 
3 | CCCCNCC(=O)O[C@]1(CC)C(=O)OCc2c1cc1n(c2=O)Cc2cc3ccccc3nc2-1 | > 48.7 µM | 1.43 µM | 0.877 µM | > 95.6 µM | 8.76 µM | 3.44 µM | > 96.5 µM | 0.314 µM | 5.77 µM |  |  |  |  |  |  |  |  |  |  | 
4 | O=C1C(=O)N(c2ccc(Cl)c(Cl)c2)C(=O)C(=O)C1c1nc2ccccc2s1 |  | > 100 µM | > 100 µM | > 100 µM | > 100 µM | > 100 µM | > 100 µM |  | > 100 µM |  |  |  |  |  |  |  |  |  |  | 
5 | Brc1cccc(C2SCc3nc4ccccc4n32)c1 (configuration not stated) | > 100 µM | 28.6 µM | 44.7 µM | > 100 µM |  | 3.51 µM | 65.1 µM | 34.9 µM | > 100 µM |  |  |  |  |  |  |  |  |  |  | 
6 | O=C(O)C1(P(=O)(O)O)CC1 | > 100 µM |  | > 100 µM | > 100 µM | > 100 µM | > 100 µM | > 100 µM | > 100 µM | > 100 µM |  |  |  |  |  |  |  |  |  |  | 
7 | c1ccc2c(C3NCCc4[nH]cnc43)cccc2c1 (configuration not stated) | > 100 µM | > 100 µM | > 100 µM | > 100 µM | > 100 µM | > 100 µM | > 100 µM |  | > 100 µM |  |  |  |  |  |  |  |  |  |  | 
8 | COc1cc2c(c(OC)c1OC)-c1ncc3cc(OC)c(OC)c(OC)c3c1C2 | 50.8 µM | 29.9 µM |  |  | 56.8 µM | > 100 µM | 80.6 µM | 46 µM | > 100 µM | 1.92 µM | 15.3 µM | 15.9 µM | > 100 µM | 22.9 µM | 54.5 µM | 23.3 µM |  |  |  | 
9 | COc1ccc(NC(=O)C/C(C)=N\N=C(N)N)c([N+](=O)[O-])c1 | > 100 µM | > 100 µM | > 100 µM | > 100 µM | > 100 µM | > 100 µM | > 100 µM | > 100 µM | > 100 µM |  |  |  |  |  |  |  |  |  |  | 
10 | C[Si](C)(C)OC1(C#N)C2C3CC4C2C(=O)C2C4C3C21 (configuration not stated) | > 100 µM |  |  | > 100 µM | > 100 µM | > 100 µM | > 100 µM | > 100 µM | > 100 µM |  |  |  |  |  |  |  |  |  |  | 
11 | C=C1COC(/C=C(\C)CC/C=C(\C)CCl)C1 (configuration not stated) | > 100 µM | > 100 µM | > 100 µM | > 100 µM | > 100 µM | > 100 µM | > 100 µM | > 100 µM | > 100 µM |  |  |  |  |  |  |  |  |  |  | 
12 | COc1ccc(C2CC(c3cc(OC)c(OC)c(OC)c3)=NN2C(C)=O)cc1OCC(=O)Nc1nc2ccc(C(F)(F)F)cc2s1 (configuration not stated) |  | > 100 µM | 33 µM | 29.5 µM | 20.4 µM | 4.78 µM | 7.77 µM |  | 7.09 µM |  |  | 3.36 µM | 2.21 µM | 3.08 µM | 1.55 µM | 2.85 µM | 4.02 µM | > 100 µM | 3.76 µM | 3.84 µM
13 | c1ccc(SC(CCCCC(Sc2ccccc2)Sc2ccccc2)Sc2ccccc2)cc1 | > 100 µM | > 100 µM | > 100 µM | > 100 µM | > 100 µM | > 100 µM | > 100 µM | > 100 µM | > 100 µM |  |  |  |  |  |  |  |  |  |  | 
14 | CCCCCCCCCCCC(=O)OCCOCCOCCOCCOCCOCc1ccc(OC)cc1 | > 100 µM | > 100 µM | > 100 µM | > 100 µM | > 100 µM | > 100 µM | > 100 µM | 51.7 µM | > 100 µM |  |  |  |  |  |  |  |  |  |  | 
15 | O=c1cc(-c2ccccc2)[nH]c2cc(O)ccc12 | 39.2 µM | 34.6 µM | 87.6 µM | > 100 µM | 94.9 µM | 72.5 µM | > 100 µM | 40.7 µM | 37.6 µM |  |  |  |  |  |  |  |  |  |  | 
16 | O=S(=O)(c1ccccc1)C(CN1CCCCC1)S(=O)(=O)c1ccccc1 | > 100 µM | > 100 µM | > 100 µM | > 100 µM | > 100 µM | > 100 µM | > 100 µM | > 100 µM | > 100 µM |  |  |  |  |  |  |  |  |  |  | 
17 | COc1ccc(C2=C(Cl)c3cc(OC)c(OC)cc3C2Cl)cc1OC (configuration not stated) | 48.6 µM | 31.1 µM | 38.2 µM |  |  | 33.4 µM | 46.3 µM | 35.3 µM | 27.7 µM |  |  |  |  |  |  |  |  |  |  | 

Reference: PubChem BioAssay (NCI)
